Measured values from PubChem BioAssay (NCI).
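Cells were grown in 96-well plates and exposed to each compound for 48 hours at five concentrations; endpoints were interpolated linearly between bracketing concentrations, or set to the highest concentration if not reached. At the TGI there is no net growth.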

Key:
Experiment in all cases: NCI-60 cell line screen, 48 h
[1] = test system: SNB-75 CNS
[2] = test system: CCRF-CEM leukemia
[3] = test system: 786-0 renal
[4] = test system: HCC-2998 colon
[5] = test system: RXF 393 renal
[6] = test system: HS 578T breast
[7] = test system: ACHN renal
[8] = test system: MDA-MB-435
[9] = test system: SNB-19 CNS
[10] = test system: CAKI-1 renal
[11] = test system: NCI-H460 lung
[12] = test system: NCI-H226 lung
[13] = test system: K-562 leukemia
[14] = test system: HOP-62 NSCLC
[15] = test system: HCT-15 colon
[16] = test system: OVCAR-5 ovarian
[17] = test system: OVCAR-4 ovarian
[18] = test system: EKVX NSCLC
[19] = test system: MOLT-4 leukemia
[20] = test system: UO-31 renal
[21] = test system: UACC-257 melanoma
[22] = test system: HT29 colon
[23] = test system: SK-MEL-5 melanoma
[24] = test system: OVCAR-8 ovarian
[25] = test system: BT-549 breast
[26] = test system: SK-MEL-2 melanoma
[27] = test system: M14 melanoma
[28] = test system: PC-3 prostate
[29] = test system: KM12 colon
[30] = test system: NCI-H522 lung
[31] = test system: HL-60(TB) leukemia
[32] = test system: COLO 205 colon
[33] = test system: SF-539 CNS
[34] = test system: SK-OV-3 ovarian
[35] = test system: HCT-116 colon
[36] = test system: SW-620 colon
[37] = test system: SF-295 CNS
[38] = test system: SF-268 CNS
[39] = test system: A498 renal
[40] = test system: SR leukemia
[41] = test system: UACC-62 melanoma
[42] = test system: MDA-MB-231 breast
[43] = test system: A549 NSCLC
[44] = test system: NCI/ADR-RES ovarian
[45] = test system: HOP-92 NSCLC
[46] = test system: MALME-3M melanoma
[47] = test system: U251 CNS
[48] = test system: TK-10 renal
[49] = test system: OVCAR-3 ovarian
[50] = test system: SK-MEL-28 melanoma

Q: What does the source list for `Cc1ccc2nc(-c3ccc(N)c(I)c3)sc2c1`?
A: TGI [1]: > 100 µM; TGI [2]: 88.8 µM; TGI [3]: 32.7 µM; TGI [4]: 26.4 µM; TGI [5]: > 100 µM; TGI [6]: > 100 µM; TGI [7]: > 100 µM; TGI [8]: 79.1 µM; TGI [9]: 86.4 µM; TGI [10]: > 100 µM; TGI [11]: > 100 µM; TGI [12]: 40.6 µM; TGI [13]: > 100 µM; TGI [14]: > 100 µM; TGI [15]: 23.2 µM; TGI [16]: > 100 µM; TGI [17]: 41.9 µM; TGI [18]: > 100 µM; TGI [19]: > 100 µM; TGI [20]: 26.2 µM; TGI [21]: > 100 µM; TGI [22]: 34.8 µM; TGI [23]: > 100 µM; TGI [24]: > 100 µM; TGI [25]: > 100 µM; TGI [26]: 40.8 µM; TGI [27]: > 100 µM; TGI [28]: 60.6 µM; TGI [29]: 56.1 µM; TGI [30]: 39.2 µM; TGI [31]: 51 µM; TGI [32]: 30.9 µM; TGI [33]: 68.3 µM; TGI [34]: > 100 µM; TGI [35]: > 100 µM; TGI [36]: 57.8 µM; TGI [37]: 44.9 µM; TGI [38]: 88.7 µM; TGI [39]: 56 µM; TGI [40]: 19.8 µM; TGI [41]: > 100 µM; TGI [42]: > 100 µM; TGI [43]: 58.7 µM; TGI [44]: > 100 µM; TGI [45]: 71.5 µM; TGI [46]: > 100 µM; TGI [47]: 98.6 µM; TGI [48]: 17.7 µM; TGI [49]: > 100 µM; TGI [50]: > 100 µM
